Laboratory results published in PubChem BioAssay (NCI).
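Exposure lasted 48 hours, with cells grown in 96-well plates and compounds tested at five concentrations. Abbreviation: GI50, concentration required for 50% inhibition of growth. At the TGI there is no net growth.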

How the values were obtained:
Assay in all cases: NCI tumour cell line growth inhibition, 48 h
786-0 renal = test system: 786-0 renal
A498 renal = test system: A498 renal
A549 NSCLC = test system: A549 NSCLC
ACHN renal = test system: ACHN renal
BT-549 breast = test system: BT-549 breast
CAKI-1 renal = test system: CAKI-1 renal
CCRF-CEM leukemia = test system: CCRF-CEM leukemia
COLO 205 colon = test system: COLO 205 colon
DU-145 prostate = test system: DU-145 prostate
EKVX NSCLC = test system: EKVX NSCLC
HCC-2998 colon = test system: HCC-2998 colon
HCT-116 colon = test system: HCT-116 colon
HCT-15 colon = test system: HCT-15 colon
HL-60(TB) leukemia = test system: HL-60(TB) leukemia
HOP-62 NSCLC = test system: HOP-62 NSCLC
HOP-92 NSCLC = test system: HOP-92 NSCLC
HS 578T breast = test system: HS 578T breast
HT29 colon = test system: HT29 colon
IGROV1 ovarian = test system: IGROV1 ovarian
K-562 leukemia = test system: K-562 leukemia
KM12 colon = test system: KM12 colon
LOX IMVI melanoma = test system: LOX IMVI melanoma
M14 melanoma = test system: M14 melanoma
MALME-3M melanoma = test system: MALME-3M melanoma
MCF7 breast = test system: MCF7 breast
MDA-MB-231 breast = test system: MDA-MB-231 breast
MDA-MB-435 = test system: MDA-MB-435
MOLT-4 leukemia = test system: MOLT-4 leukemia
NCI-H226 lung = test system: NCI-H226 lung
NCI-H23 lung = test system: NCI-H23 lung
NCI-H460 lung = test system: NCI-H460 lung
NCI-H522 lung = test system: NCI-H522 lung
NCI/ADR-RES ovarian = test system: NCI/ADR-RES ovarian
OVCAR-3 ovarian = test system: OVCAR-3 ovarian
OVCAR-4 ovarian = test system: OVCAR-4 ovarian
OVCAR-5 ovarian = test system: OVCAR-5 ovarian
OVCAR-8 ovarian = test system: OVCAR-8 ovarian
PC-3 prostate = test system: PC-3 prostate
RPMI-8226 leukemia = test system: RPMI-8226 leukemia
RXF 393 renal = test system: RXF 393 renal
SF-268 CNS = test system: SF-268 CNS
SF-295 CNS = test system: SF-295 CNS
SF-539 CNS = test system: SF-539 CNS
SK-MEL-2 melanoma = test system: SK-MEL-2 melanoma
SK-MEL-28 melanoma = test system: SK-MEL-28 melanoma
SK-MEL-5 melanoma = test system: SK-MEL-5 melanoma
SK-OV-3 ovarian = test system: SK-OV-3 ovarian
SN12C renal = test system: SN12C renal
SNB-19 CNS = test system: SNB-19 CNS
SNB-75 CNS = test system: SNB-75 CNS
SR leukemia = test system: SR leukemia
SW-620 colon = test system: SW-620 colon
T-47D breast = test system: T-47D breast
TK-10 renal = test system: TK-10 renal
U251 CNS = test system: U251 CNS
UACC-257 melanoma = test system: UACC-257 melanoma
UACC-62 melanoma = test system: UACC-62 melanoma
UO-31 renal = test system: UO-31 renal

`Cc1cc(-c2ncc(-c3cccnc3)cc2/C=C/c2ccccc2)cnc1-c1cccnc1` was tested, and the GI50 (786-0 renal) was 6.05 µM, the TGI (786-0 renal) was > 100 µM and the GI50 (A498 renal) was 2.31 µM. The TGI (A498 renal) was > 30.9 µM, the GI50 (A549 NSCLC) was 3.92 µM and the TGI (A549 NSCLC) was > 100 µM. The GI50 (ACHN renal) was 3.91 µM, the TGI (ACHN renal) was > 100 µM and the GI50 (BT-549 breast) was 3.05 µM. The TGI (BT-549 breast) was 20.8 µM, the GI50 (CAKI-1 renal) was 4.25 µM and the TGI (CAKI-1 renal) was > 100 µM. For the same compound, the GI50 (CCRF-CEM leukemia) was 1.17 µM, the TGI (CCRF-CEM leukemia) was 7.76 µM and the TGI (COLO 205 colon) was > 100 µM. For the same compound, the GI50 (DU-145 prostate) was 3.35 µM, the TGI (DU-145 prostate) was > 100 µM and the GI50 (EKVX NSCLC) was 3.39 µM. The TGI (EKVX NSCLC) was > 100 µM, the GI50 (HCC-2998 colon) was > 25.4 µM and the TGI (HCC-2998 colon) was > 100 µM. The GI50 (HCT-116 colon) was 4.22 µM, the TGI (HCT-116 colon) was > 100 µM and the GI50 (HCT-15 colon) was 2.95 µM. For the same compound, the TGI (HCT-15 colon) was > 100 µM, the GI50 (HL-60(TB) leukemia) was 2.35 µM and the TGI (HL-60(TB) leukemia) was 12.3 µM. For the same compound, the GI50 (HOP-62 NSCLC) was 4.45 µM, the TGI (HOP-62 NSCLC) was 97.5 µM and the GI50 (HOP-92 NSCLC) was 2.96 µM. For the same compound, the TGI (HOP-92 NSCLC) was > 26 µM, the GI50 (HS 578T breast) was 3.39 µM and the TGI (HS 578T breast) was > 100 µM. The GI50 (HT29 colon) was 3.52 µM, the TGI (HT29 colon) was > 100 µM and the GI50 (IGROV1 ovarian) was 5.39 µM. The TGI (IGROV1 ovarian) was > 100 µM, the GI50 (K-562 leukemia) was 3.28 µM and the TGI (K-562 leukemia) was > 100 µM. The GI50 (KM12 colon) was 3.3 µM, the TGI (KM12 colon) was > 100 µM and the GI50 (LOX IMVI melanoma) was 3.12 µM. The TGI (LOX IMVI melanoma) was 19.7 µM, the GI50 (M14 melanoma) was 4.24 µM and the TGI (M14 melanoma) was > 100 µM. For the same compound, the GI50 (MALME-3M melanoma) was 2.81 µM, the TGI (MALME-3M melanoma) was 16.9 µM and the GI50 (MCF7 breast) was 3.02 µM. For the same compound, the TGI (MCF7 breast) was > 100 µM, the GI50 (MDA-MB-231 breast) was 4.76 µM and the TGI (MDA-MB-231 breast) was > 100 µM. For the same compound, the TGI (MDA-MB-435) was > 100 µM, the GI50 (MOLT-4 leukemia) was 1.47 µM and the TGI (MOLT-4 leukemia) was 5.99 µM. For the same compound, the GI50 (NCI-H226 lung) was 2.62 µM, the TGI (NCI-H226 lung) was 7.61 µM and the GI50 (NCI-H23 lung) was 4.59 µM. For the same compound, the TGI (NCI-H23 lung) was > 100 µM, the GI50 (NCI-H460 lung) was 2.28 µM and the TGI (NCI-H460 lung) was 5.27 µM. For the same compound, the GI50 (NCI-H522 lung) was 3.01 µM, the TGI (NCI-H522 lung) was 14.9 µM and the GI50 (NCI/ADR-RES ovarian) was 3.62 µM. The TGI (NCI/ADR-RES ovarian) was > 100 µM, the GI50 (OVCAR-3 ovarian) was 3.48 µM and the TGI (OVCAR-3 ovarian) was 37.7 µM. The GI50 (OVCAR-4 ovarian) was > 21.1 µM, the TGI (OVCAR-4 ovarian) was > 100 µM and the GI50 (OVCAR-5 ovarian) was > 72.6 µM. The TGI (OVCAR-5 ovarian) was > 100 µM, the GI50 (OVCAR-8 ovarian) was 3.81 µM and the TGI (OVCAR-8 ovarian) was > 100 µM. The GI50 (PC-3 prostate) was 3.21 µM, the TGI (PC-3 prostate) was > 100 µM and the GI50 (RPMI-8226 leukemia) was 2.53 µM. The TGI (RPMI-8226 leukemia) was 16.7 µM, the GI50 (RXF 393 renal) was 4.13 µM and the TGI (RXF 393 renal) was 75.3 µM. For the same compound, the GI50 (SF-268 CNS) was 5.81 µM, the TGI (SF-268 CNS) was > 100 µM and the GI50 (SF-295 CNS) was 5.62 µM. For the same compound, the TGI (SF-295 CNS) was 52.1 µM, the GI50 (SF-539 CNS) was 11.5 µM and the TGI (SF-539 CNS) was > 33.2 µM. The GI50 (SK-MEL-2 melanoma) was 4.93 µM, the TGI (SK-MEL-2 melanoma) was > 66.9 µM and the GI50 (SK-MEL-28 melanoma) was > 20.2 µM. For the same compound, the TGI (SK-MEL-28 melanoma) was > 100 µM, the GI50 (SK-MEL-5 melanoma) was 1.46 µM and the TGI (SK-MEL-5 melanoma) was 3.02 µM. For the same compound, the GI50 (SK-OV-3 ovarian) was 19.1 µM, the TGI (SK-OV-3 ovarian) was > 100 µM and the GI50 (SN12C renal) was 3.59 µM. For the same compound, the TGI (SN12C renal) was > 100 µM, the GI50 (SNB-19 CNS) was 5.32 µM and the TGI (SNB-19 CNS) was > 100 µM. The GI50 (SNB-75 CNS) was 5.23 µM, the TGI (SNB-75 CNS) was > 63.4 µM and the GI50 (SR leukemia) was 2.69 µM. For the same compound, the TGI (SR leukemia) was > 28.5 µM, the GI50 (SW-620 colon) was 4.41 µM and the TGI (SW-620 colon) was > 100 µM. The GI50 (T-47D breast) was 2.4 µM, the TGI (T-47D breast) was > 30.8 µM and the TGI (TK-10 renal) was > 100 µM. The GI50 (U251 CNS) was 4.54 µM, the TGI (U251 CNS) was > 100 µM and the GI50 (UACC-257 melanoma) was 5.08 µM. For the same compound, the TGI (UACC-257 melanoma) was > 100 µM, the GI50 (UACC-62 melanoma) was 3.91 µM and the TGI (UACC-62 melanoma) was > 83.9 µM. It also gave a GI50 (UO-31 renal) of 2.27 µM and a TGI (UO-31 renal) of 9.04 µM.
